For this assay, the target named is T1, cloned human CCR8 receptor stably expressed in L1.2 cells (Homo sapiens, UniProt P51685).
T1 construct: expressed in transfected cells
T1 sequence (P51685 whole entry): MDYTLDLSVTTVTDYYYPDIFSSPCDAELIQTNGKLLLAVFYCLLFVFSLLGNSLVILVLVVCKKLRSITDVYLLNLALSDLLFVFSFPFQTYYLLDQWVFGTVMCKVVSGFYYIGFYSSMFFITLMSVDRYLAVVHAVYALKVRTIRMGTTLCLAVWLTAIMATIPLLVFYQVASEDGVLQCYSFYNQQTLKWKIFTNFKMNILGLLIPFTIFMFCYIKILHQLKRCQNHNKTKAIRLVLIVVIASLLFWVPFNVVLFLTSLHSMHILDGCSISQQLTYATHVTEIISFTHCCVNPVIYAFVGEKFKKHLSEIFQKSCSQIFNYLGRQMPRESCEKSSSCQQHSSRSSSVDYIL
Kind of assay: whole cell binding screen: inhibition of biotinylated human I309 binding to CCR8 (FMAT 8100 HTS). The note with it: L1.2/hCCR8 cells, biotinylated human I-309, 10 point concentration response starting at 10 μM; read-out: Ki of compounds to inhibit I-309 binding to CCR8. The source says: This whole cell binding screen evaluates the ability of compounds to inhibit biotinlyated human I309 binding to the cloned human CCR8 receptor stably expressed in L1.2 cells. Human CCR8 gene was amplified by PCR using PFU polymerase under standard conditions from human genomic DNA purchased from Stratagene. The PCR primers used were:
The 5′ and 3′ primers contained flanking enzyme sites (Bam Hi and Not 1,respectively), which were used to subclone the gene into pcDNA3.1. […] The CCR8 vector was then transfected into L1.2 cells (murine pre-B cells) by electroporation.
Compounds were screened using the FMAT™ 8100 HTS System (purchased from Applied Biosystems).
A suspension was prepared of L1.2/hCCR8 cells at 4.0×10^5 cells/mL in a binding buffer (Buffer consisting of Hanks Balanced Salt Solution (without phenol red), 10 mM HEPES, 0.1% Fatty Acid Free BSA, 0.02% Sodium Azide).
Dilution series of 10 mM stock concentrations of the test compounds were prepared in DMSO and further diluted into binding buffer defined above) to three times the final assay concentration.
10 point concentration response curve is constructed for each compound, starting at 10 μM (final assay concentration in Binding Buffer). […] The components were mixed in wells by covering the plate with aluminum foil and rotating for 0.5 hours. […] Average fluorescence reported for each concentration was normalized to percent inhibition based on negative (no inhibitor) and positive (100 nM excess unlabeled I309 (R and D Systems)) controls.
Take `CCCC(=O)N1CC[C@H](NS(=O)(=O)c2ccc(NC(=O)c3ccccc3C)c3ccccc23)[C@H](C)C1` (racemic) [Compound C-139, (±)-cis-N-[4-(1-Butryl-3-methyl-piperidin-4-ylsuffamoyl)-naphthalen-1-yl]-2-methyl-benzamide]: the Ki (commonly a measure of affinity in units of concentration, obtained from inhibition or displacement) is below 500 nM. On to `Cc1ccccc1C(=O)Nc1ccc(S(=O)(=O)N[C@@H]2CCN(C(=O)CN3CCCC3)C[C@@H]2C)c2ccccc12` (racemic) [Compound C-142, (±)-2-Methyl-N-{4-[cis-3-methyl-1-(2-pyrrolidin-1-yl-acetyl)-piperidin-4-ylsulfamoyl]-naphthalen-1-yl}-benzamide], for which the Ki is below 500 nM. The same measure for `Cc1ccccc1C(=O)Nc1ccc(S(=O)(=O)N[C@@H]2CCN(C(=O)CN3CCCCC3)C[C@@H]2C)c2ccccc12` (racemic) [Compound C-143, (±)-2-Methyl-N-{4-[cis-3-methyl-1-(2-piperidin-1-yl-aceyl)-piperidin-4-ylsulfamoyl]-naphthalen-1-yl}-benzamide]: below 30000 nM; for `CCN(CC)CC(=O)N1CC[C@@H](NS(=O)(=O)c2ccc(NC(=O)c3ccccc3C)c3ccccc23)[C@@H](C)C1` (racemic) [Compound C-144, (±)-N-{4-[1-(2-diethylamino-acetyl)-3-cis-methyl-piperidin-4-ylsulfamoyl]-naphthalen-1-yl}-2-methyl-benzamide]: below 30000 nM; for `Cc1ccccc1C(=O)Nc1ccc(S(=O)(=O)N[C@@H]2CCN(C(=O)CN3CCOCC3)C[C@@H]2C)c2ccccc12` (racemic) [Compound C-145, (±)-2-Methyl-N-{4-[3-cis-methyl-1-(2-morpholin-4-yl-acetyl)-piperidin-4-ylsulfamoyl]-naphthalen-1-yl}-benzamide]: below 1000 nM.

Consider `CCCC(=O)N1CC[C@H](NS(=O)(=O)c2ccc(N)c3ccccc23)[C@H](C)C1` (racemic) [Compound D-1, (±)-(cis)-4-amino-naphthalene-1-sulfonic acid (1-butyryl-3-methyl-piperidin-4-yl)-amide], for which the Ki is below 30000 nM. As for `CCOC(=O)N1CC[C@H](NS(=O)(=O)c2ccc(N)c3ccccc23)[C@H](C)C1` (racemic) [Compound D-2, (±)-(cis)4-(4-amino-naphthalene-1-sulfonylamino)-3-methyl-piperidine-1-carboxylic acid ethyl ester], the Ki was below 30000 nM.

As to `CCCC(=O)N1CC[C@H](NS(=O)(=O)c2ccc(NC(=O)c3cccnc3C)c3ccccc23)[C@H](C)C1` (racemic) [Compound D-3, (±)-(cis)-N-[4-(1-Butyryl-3-methyl-piperidin-4-ylsulfamoyl)-naphthalen-1-yl]-2-methyl-nicotinamide], the Ki was below 500 nM. `CCCC(=O)N1CC[C@H](NS(=O)(=O)c2ccc(NC(=O)c3ncccc3C)c3ccccc23)[C@H](C)C1` (racemic) [Compound D-4, (±)-(cis)-3-Methyl-pyridine-2-carboxylic acid [4-(1-butyryl-3-methyl-piperidin-4-ylsulfamoyl)-naphthalen-1-yl]-amide]: the Ki is below 500 nM. Next, `CCCC(=O)N1CC[C@H](NS(=O)(=O)c2ccc(NC(=O)c3c(C)noc3C)c3ccccc23)[C@H](C)C1` (racemic) [Compound D-5, (±)-(cis)-3,5-Dimethyl-isoxazole-4-carboxylic acid [4-(1-butyryl-3-methyl-piperidin-4-ylsulfamoyl)-naphthalen-1-yl]-amide]: below 500 nM; `CCOC(=O)N1CC[C@H](NS(=O)(=O)c2ccc(NC(=O)c3cccnc3C)c3ccccc23)[C@H](C)C1` (racemic) [Compound D-6, (±)-(cis)-3-Methyl-4-{4-[(2-methyl-pyridine-3-carbonyl)-amino]-naphthalene-1-sulfonylamino}-piperidine-1-carboxylic acid ethyl ester]: below 500 nM. Consider `CCOC(=O)N1CC[C@H](NS(=O)(=O)c2ccc(NC(=O)c3ncccc3C)c3ccccc23)[C@H](C)C1` (racemic) [Compound D-7, (±)-(cis)-3-Methyl-4-{4-[(3-methyl-pyridine-2-carbonyl)-amino]-naphthalene-1-sulfonylamino}-piperidine-1-carboxylic acid ethyl ester], for which the Ki is below 500 nM. `CCOC(=O)N1CC[C@H](NS(=O)(=O)c2ccc(NC(=O)c3c(C)noc3C)c3ccccc23)[C@H](C)C1` (racemic) [Compound D-8, (±)-(cis)-4-{4-[(3,5-Dimethyl-isoxazole-4-carbonyl)-amino]-naphthalene-1-sulfonylamino}-3-methyl-piperidine-1-carboxylic acid ethyl ester]: the Ki is below 500 nM. Regarding `CCOC(=O)N1CC[C@H](NS(=O)(=O)c2ccc(NC(=O)c3cccnc3C)c3ccccc23)[C@@H](C)C1` (racemic) [Compound D-9, (±)-(trans)-3-Methyl-4-{4-[(2-methyl-pyridine-3-carbonyl)-amino]-naphthalene-1-sulfonylamino}-piperidine-1-carboxylic acid ethyl ester], the Ki was below 500 nM. The same measure for `CCCC(=O)N1CC[C@H](NS(=O)(=O)c2ccc(NC(=O)c3cccnc3C)c3ccccc23)[C@@H](C)C1` (racemic) [Compound D-10, (±)-(trans)-N-[4-(1-Butyryl-3-methyl-piperidin-4-ylsulfamoyl)-naphthalen-1-yl]-2-methyl-nicotinamide]: below 500 nM; for `Cc1ccccc1C(=O)Nc1ccc(S(=O)(=O)N[C@H]2CCN(Cc3ccccc3)C[C@H]2C)c2c1CCCC2` (racemic) [Compound E-13, (±)-cis-N-[4-(1-Benzyl-3-methyl-piperidin-4-ylsulfamoyl)-5,6,7,8-tetrahydro-naphthalen-1-yl]-2-methyl-benzamide]: below 1000 nM; for `Cc1ccccc1C(=O)Nc1ccc(S(=O)(=O)N[C@H]2CCN(C(=O)N(C)C)C[C@H]2C)c2c1CCCC2` (racemic) [Compound E-20, (±)-cis-3-Methyl-4-[4-(2-methyl-benzoylamino)-5,6,7,8-tetrahydro-naphthalene-1-sulfonylamino]-piperidine-1-carboxylic acid dimethylamide]: below 500 nM.

Regarding `CCOC(=O)N1CC[C@H](NS(=O)(=O)c2ccc(NC(=O)c3ccccc3C)c3c2CCCC3)[C@H](C)C1` (racemic) [Compound E-21, (±)-cis-3-Methyl-4-[4-(2-methyl-benzoylamino)-5,6,7,8-tetrahydro-naphthalene-1-sulfonylamino]-piperidine-1-carboxylic acid ethyl ester], the Ki was below 500 nM. With `Cc1ccccc1C(=O)Nc1ccc(S(=O)(=O)NC2CCCNC2)c2c1CCCC2` (racemic) [Compound E-28, (±)-2-Methyl-N-[4-(piperidin-3-ylsulfamoyl)-5,6,7,8-tetrahydro-naphthalen-1-yl]-benzamide], the Ki was below 500 nM. As to `Cc1ccccc1C(=O)Nc1ccc(S(=O)(=O)NC2CCNC2)c2c1CCCC2` (racemic) [Compound E-29, (±)-2-Methyl-N-[4-(pyrrolidin-3-ylsulfamoyl)-5,6,7,8-tetrahydro-naphthalen-1-yl]-benzamide], the Ki was below 500 nM. Next, `Cc1ccccc1C(=O)Nc1ccc(S(=O)(=O)NC2CCCN(C(=O)N(C)C)C2)c2c1CCCC2` (racemic) [Compound E-30, (±)-3-[4-(2-Methyl-benzoylamino)-5,6,7,8-tetrahydro-naphthalene-1-sulfonylamino]-piperidine-1-carboxylic acid dimethylamide]: below 500 nM.
